Data set [1] has as its target T1, CYP3A4 (Homo sapiens, UniProt P08684). The conditions noted are these: Crespi et al., Anal. Biochem. 248:188-190 (1997); cited from earlier work.
Data set [2] addresses T1, CYP3A4. The data set can be described thus: DCF formation during CYP3A4-mediated metabolism of substrates (CYP3A4OR, DCFH-DA, NADPH). How it is done: A fluorogenic probe 2′, 7′-dichlorodihydrofluorescin-diacetate (DCFH-DA) was added to a CYP-mediated reaction mixture containing a substrate, isoenzyme, and NADPH in Tris buffer (50 mM, pH 7.4). The substrate comprised testosterone. Metabolism of the substrate was examined by measurement of formation of the resulting metabolite (prior art method) and/or 2′, 7′-dichlorofluroescein (DCF; method in accordance with the present invention) which was converted from the DCFH-DA in the presence of the ROS produced by CYP-mediated reactions. Dextromethorphan and benzyloxyresorufin served as two additional substrates, and phenacetine (not a CYP3A4 substrate) as a negative control for CYP3A4 to test whether the method of the present invention could differentiate substrates with different metabolic rates or substrates from non-substrates.
Initial studies were conducted to examine whether DCF was formed during CYP-mediated oxidation using testosterone hydroxylation by CYP3A4OR. A reaction mixture (total 2 ml) comprising DCFH-DA (5.36 μM), CYP3A4OR (0.5 mg/ml) and testosterone (50 μM) in Tris buffer (50 mM, pH 7.4) was prepared. The reaction was initiated by adding NADPH (0.5 mM) and allowed to proceed at room temperature. The fluorescent spectra (emission and excitation) of DCF formed from the incubation was determined using LS50B Luminescence Spectrometer (Perkin-Elmer, Norwalk, Conn.). The spectra were compared with that of standard DCF in Tris buffer (50 mM, pH 7.4). An incubation mixture that contained all the components as described previously except for DCFH-DA served as a control.
(§1) Metabolism—After obtaining the maximal excitation and emission wavelengths of DCF under experimental conditions, the fluorescent signals at the maximal excitation and emission wavelengths were determined for incubation reactions that contained 12.5, 25, and 50 μM testosterone to test whether DCF formation was dependent on testosterone concentrations. The incubation conditions were the same as those described above. The formation of DCF at 10 min post addition of NADPH was calculated based on the standard curve of DCF. The standard curve covered DCF concentrations ranging from 0.05 to 50 nM. In parallel, DCF formation was determined with incubation reactions that were devoid of any of NADPH, CYP3A4 or testosterone.
DCFH-DA (1, 2.5 or 5 μM) was incubated with CYP3A4OR (0.5 mg/ml protein), testosterone (33 μM), and NADPH (1 mM) in Tris buffer. DCF concentration was measured at 5, 10, 20 and 30 min. The effect of NADPH concentration on DCF formation at 20 and 30 min was examined with incubations containing NADPH (0.5, 1 or 2 mM), testosterone (33 μM), and DCFH-DA (2.5 μM).
DCFH-DA (2.5 ,μM) was incubated with testosterone (5-40 4 μM), CYP3A4OR (0.5 mg/ml protein) and NADPH (1 mM) in Tris buffer. The total incubation volume was 1 ml. The formation of DCF was measured at 10 and 20 min post addition of NADPH. Triplicate incubations were performed at each concentration. A Michaelis-Menten function was used to fit to DCF formation rate vs. testosterone concentration data to obtain estimates of the relevant kinetic parameters using the nonlinear least-squares regression method (Winnonlin Scientific Consulting Co., Apex, N.C.). Parallel experiments were conducted to obtain the kinetic parameters based on measurement of 6β-OH testosterone, a specific CYP3A4-mediated metabolite of testosterone, with the HPLC-UV method. The concentration range of testosterone used for the HPLC-UV method was 10 to 75 μM.
Dextromethorphan (2-100 μM), benzyloxyresorufin (5-100 μM), or phenacetin (48 μM) was incubated with CYP3A4OR (0.5 or 1 mg/ml), DCFH-DA (2.5 μM) and NADPH (1 mM) in Tris buffer. In the case of benzyloxyresorufin, pluronic F-68 (2%, 5 μl) was added to the reaction mixture (Crespi et al., Ana. Biochem. 248:188-190). DCF formation was measured at timed intervals.

Data set [3] addresses T1, CYP3A4. The data set can be described thus: HPLC monitoring of potential phenacetin metabolites after incubation with CYP3A4OR. It is filed as in vitro ADME. Details: Glaxo Wellcome Inc. (gift). The conditions noted are these: phenacetin 92 μM; CYP3A4OR 0.5 or 1 mg/ml; NADPH 1 mM; 10 or 30 min.
In data set [4] the target is T1, CYP3A4. The data set can be described thus: 6β-OH testosterone formation during CYP3A4-mediated testosterone metabolism, HPLC-UV method. The conditions noted are these: recombinant CYP3A4OR. How it is done: as §1
DCFH-DA (2.5 ,μM) was incubated with testosterone (5-40 4 μM), CYP3A4OR (0.5 mg/ml protein) and NADPH (1 mM) in Tris buffer. The total incubation volume was 1 ml. The formation of DCF was measured at 10 and 20 min post addition of NADPH. Triplicate incubations were performed at each concentration. A Michaelis-Menten function was used to fit to DCF formation rate vs. testosterone concentration data to obtain estimates of the relevant kinetic parameters using the nonlinear least-squares regression method (Winnonlin Scientific Consulting Co., Apex, N.C.). […]

Data set [5] has as its target T2, CYP1A2 (Homo sapiens, UniProt P05177).
T2 sequence (P05177 1-516): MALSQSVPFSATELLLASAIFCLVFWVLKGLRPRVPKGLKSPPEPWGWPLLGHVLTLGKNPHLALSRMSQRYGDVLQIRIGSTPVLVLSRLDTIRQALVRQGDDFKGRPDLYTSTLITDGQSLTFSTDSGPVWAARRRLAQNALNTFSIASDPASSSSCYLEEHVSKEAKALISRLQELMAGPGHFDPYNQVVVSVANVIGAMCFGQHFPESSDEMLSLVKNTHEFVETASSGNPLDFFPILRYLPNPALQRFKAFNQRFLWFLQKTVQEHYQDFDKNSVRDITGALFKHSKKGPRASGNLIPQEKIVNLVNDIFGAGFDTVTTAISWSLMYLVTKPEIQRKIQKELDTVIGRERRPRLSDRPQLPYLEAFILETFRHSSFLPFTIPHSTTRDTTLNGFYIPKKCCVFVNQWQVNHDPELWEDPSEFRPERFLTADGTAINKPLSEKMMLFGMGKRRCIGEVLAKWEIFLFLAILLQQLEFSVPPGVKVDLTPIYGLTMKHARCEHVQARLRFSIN
The conditions noted are these: 5 min.

Substrate in data set [6]: CCOc1ccc2nc3ccc(=O)cc-3oc2c1
Put plainly: Resorufin formation during CYP1A2-mediated metabolism of ethoxyresorufin (fluorescence spectrophotometry). It is filed as in vitro ADME, human. The conditions noted are these: other: CYP1A2 SUPERSOME 90 μg/ml; 5 min. How it is done: Resorufin, a common metabolite of ethoxyresorufin by CYP1A2 and of benzyloxyresorufin by CYP3A4, was measured by fluorescence spectrophotometry as described above for DCF, with excitation and emission wavelength at 570 and 583 nm, respectively.
(§2) Initial experiments were conducted to examine ethoxyresorufin concentration-dependent formation of DCF. Ethoxyresorufin (0.5, 5, 50 μM) was incubated with CYP1A2 SUPERSOME™ (sold under this trademark by Gentest Corp., Woburn, Mass.) (90 μg/ml protein), DCFH-DA (5 μM) and NADPH (1 mM). Formation of resorufin and DCF for the sample was measured at 8 and 10 min, respectively. The kinetic parameters then were obtained by incubating ethoxyresorufin (0.5-2.5 μM) with CYP1A2 SUPERSOME™ (90 μg/ml protein), DCFH-DA (5 μM), and NADPH (1 mM) for 5 min for measurement of resorufin formation and 15 min for measurement of DCF formation. Formation of DCF and resorufin was determined by fluorescence spectrophotometry. All experiments were performed in triplicate unless otherwise indicated.

Substrate in data set [7]: CCOc1ccc2nc3ccc(=O)cc-3oc2c1
Put plainly: DCF formation during CYP1A2-mediated metabolism of ethoxyresorufin (CYP1A2 SUPERSOME). Type of data set: in vitro ADME, human. The conditions noted are these: other: CYP1A2 SUPERSOME 90 μg/ml; DCFH-DA 5 μM; 15 min. How it is done:
as §2

The mark [8] stands for this setting: read-out: Apparent Km by measurement of DCF formation, CYP3A4OR, DCFH-DA 2.5 μM, NADPH 1 mM, Michaelis-Menten fit.

Read-outs that look alike come from different tables or passages of the source.

What is called Km is the substrate concentration at which the rate is half of its maximum.

T1 sequence (P08684 whole entry): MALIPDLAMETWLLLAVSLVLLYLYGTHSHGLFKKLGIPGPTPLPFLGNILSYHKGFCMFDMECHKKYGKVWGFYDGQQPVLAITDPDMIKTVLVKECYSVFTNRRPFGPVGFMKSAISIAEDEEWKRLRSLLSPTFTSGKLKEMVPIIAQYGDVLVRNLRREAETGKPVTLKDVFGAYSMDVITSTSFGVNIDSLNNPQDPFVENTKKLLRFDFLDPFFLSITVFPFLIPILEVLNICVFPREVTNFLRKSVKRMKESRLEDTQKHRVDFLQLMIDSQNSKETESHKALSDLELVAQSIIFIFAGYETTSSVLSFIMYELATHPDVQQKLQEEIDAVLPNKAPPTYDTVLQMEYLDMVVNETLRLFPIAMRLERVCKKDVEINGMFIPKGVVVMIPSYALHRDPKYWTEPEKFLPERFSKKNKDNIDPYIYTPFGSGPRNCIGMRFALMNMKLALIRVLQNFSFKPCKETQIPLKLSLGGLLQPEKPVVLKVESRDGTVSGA

Consider `O=c1ccc2nc3ccc(OCc4ccccc4)cc3oc-2c1` [Benzyloxyresorufin, 7-benzyloxyresorufin], for which the “Vmax for benzyloxyresorufin by CYP3A4” value in data set [1] is 0.31 min⁻¹. For the same molecule, the “Apparent Vmax by measurement of DCF formation” value in data set [2] (CYP3A4OR, DCFH-DA 2.5 μM, NADPH 1 mM, Michaelis-Menten fit) was 1.17 ± 0.14 pmol DCF/min/mg pr. Further, in data set [2] (setting [8]), the Km amounted to 3.79 ± 2.34 µM.

With `CCOc1ccc(NC(C)=O)cc1` [Phenacetin, N-[4-ethoxyphenyl] acetamide], the “metabolites found by prior art HPLC methods” value in data set [3] is given as “no detectable metabolites”. For the same molecule, the “DCF formation from potential metabolism by CYP3A4 (in words)” value in data set [2] (human, 48 μM, pH 7.4) is “^aPhenacetin was not significantly metabolized by CYP3A4, and DCF formation was not sufficiently high to allow measurement”.

As for `C[C@]12CC[C@H]3[C@@H](CCC4=CC(=O)CC[C@@]43C)[C@@H]1CC[C@@H]2O` [Testosterone], the Km stood at 43.4 µM in data set [4]; 11.9 µM in data set [2] (human, pH 7.4, Apparent Km by measurement of DCF formation, CYP3A4OR, DCFH-DA 2.5 μM, NADPH 1 mM, Michaelis-Menten fit); 12 ± 3.58 µM in data set [2] (setting [8]). Moreover, in data set [2] (ratio of the two Km values), the “Km by DCF measurement lower than Km by 6β-OH testosterone measurement” value is given as “approximately 3.5 fold”.

In the case of `Cc1nc2c([nH]1)c(=O)n(C)c(=O)n2Cc1ccco1` [furafylline], the results for the DCF formation in data set [5] (1 μM) and in data set [5] (10 μM) were 83.9 ±10.2 % of the control and 73.9±7.0 % of the control, respectively.

B1: CYP1A2 (Homo sapiens) (protein)
chain: MALSQSVPFSATELLLASAIFCLVFWVLKGLRPRVPKGLKSPPEPWGWPLLGHVLTLGKNPHLALSRMSQRYGDVLQIRIGSTPVLVLSRLDTIRQALVRQGDDFKGRPDLYTSTLITDGQSLTFSTDSGPVWAARRRLAQNALNTFSIASDPASSSSCYLEEHVSKEAKALISRLQELMAGPGHFDPYNQVVVSVANVIGAMCFGQHFPESSDEMLSLVKNTHEFVETASSGNPLDFFPILRYLPNPALQRFKAFNQRFLWFLQKTVQEHYQDFDKNSVRDITGALFKHSKKGPRASGNLIPQEKIVNLVNDIFGAGFDTVTTAISWSLMYLVTKPEIQRKIQKELDTVIGRERRPRLSDRPQLPYLEAFILETFRHSSFLPFTIPHSTTRDTTLNGFYIPKKCCVFVNQWQVNHDPELWEDPSEFRPERFLTADGTAINKPLSEKMMLFGMGKRRCIGEVLAKWEIFLFLAILLQQLEFSVPPGVKVDLTPIYGLTMKHARCEHVQARLRFSIN
notes: purchased Gentest Corp. (Woburn, Mass.)
Consider B1, for which the Michaelis-Menten constant (Km) was 4.89 ± 1.71 µM in data set [6] and 3.46 ± 1.07 µM in data set [7].
